# Reference: ChEMBL document CHEMBL1141582, “Multi-target-directed coumarin derivatives: hAChE and BACE1 inhibitors as potential anti-Alzheimer compounds” (Bioorg Med Chem Lett, 2008)
# How the values were obtained:
# Acetylcholinesterase = Acetylcholinesterase (Homo sapiens, UniProt P22303); experiment: Inhibition of human recombinant AChE by Ellman method
# Beta-secretase 1 = Beta-secretase 1 (Homo sapiens, UniProt P56817); experiment: Inhibition of human recombinant BACE1 by spectrofluorimetric method
# Chain of Beta-secretase 1 (P56817 whole entry): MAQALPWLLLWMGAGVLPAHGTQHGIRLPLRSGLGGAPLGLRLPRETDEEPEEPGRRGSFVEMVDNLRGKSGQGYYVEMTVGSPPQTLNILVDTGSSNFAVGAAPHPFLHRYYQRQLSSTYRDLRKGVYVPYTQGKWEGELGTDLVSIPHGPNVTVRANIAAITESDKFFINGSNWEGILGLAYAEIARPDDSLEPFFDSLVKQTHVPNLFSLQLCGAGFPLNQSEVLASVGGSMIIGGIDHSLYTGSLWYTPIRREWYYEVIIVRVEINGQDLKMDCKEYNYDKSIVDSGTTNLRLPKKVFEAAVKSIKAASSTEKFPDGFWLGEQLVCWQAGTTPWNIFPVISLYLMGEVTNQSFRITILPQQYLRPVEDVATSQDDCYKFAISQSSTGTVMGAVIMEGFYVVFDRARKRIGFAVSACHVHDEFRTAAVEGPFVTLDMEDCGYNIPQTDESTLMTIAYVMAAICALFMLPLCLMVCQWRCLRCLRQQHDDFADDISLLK
# Chain of Acetylcholinesterase (P22303 whole entry): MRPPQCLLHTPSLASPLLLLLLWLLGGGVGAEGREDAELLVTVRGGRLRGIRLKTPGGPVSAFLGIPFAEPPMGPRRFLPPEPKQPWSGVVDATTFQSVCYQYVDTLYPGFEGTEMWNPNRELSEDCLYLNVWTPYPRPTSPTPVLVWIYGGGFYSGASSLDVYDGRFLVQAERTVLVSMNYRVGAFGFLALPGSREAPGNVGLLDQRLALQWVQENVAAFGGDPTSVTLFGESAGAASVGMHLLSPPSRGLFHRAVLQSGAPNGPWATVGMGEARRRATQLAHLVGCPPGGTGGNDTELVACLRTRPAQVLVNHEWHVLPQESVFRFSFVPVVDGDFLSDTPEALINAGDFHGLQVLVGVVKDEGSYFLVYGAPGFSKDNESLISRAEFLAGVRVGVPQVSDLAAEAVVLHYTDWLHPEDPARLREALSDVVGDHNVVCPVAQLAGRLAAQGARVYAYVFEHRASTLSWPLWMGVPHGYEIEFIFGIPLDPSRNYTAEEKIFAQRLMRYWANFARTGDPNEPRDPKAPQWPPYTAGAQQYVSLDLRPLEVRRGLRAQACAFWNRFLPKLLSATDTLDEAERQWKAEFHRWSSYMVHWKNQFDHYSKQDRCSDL
SMILES,IC50 (Acetylcholinesterase) [nM],IC50 (Beta-secretase 1) [nM]
CCN(Cc1ccccc1)Cc1ccc(-c2cc3ccc(OCCNC(=O)Cc4cc(F)cc(F)c4)cc3oc2=O)cc1,181,150
CCN(Cc1ccccc1)Cc1ccc(-c2cc3cc(OCCNC(=O)/C=C/c4ccc(Cl)c(Cl)c4)ccc3oc2=O)cc1,267000,133
CCN(Cc1ccccc1)Cc1ccc(-c2cc3cc(OCCNC(=O)CCc4ccc(F)c(F)c4)ccc3oc2=O)cc1,2770,116
CCN(Cc1ccccc1)Cc1ccc(-c2cc3ccc(OCCNC(=O)/C=C/c4cc(F)cc(F)c4)cc3oc2=O)cc1,4570,121
CCN(Cc1ccccc1)Cc1ccc(-c2cc3cc(OCCNC(=O)/C=C/c4cc(F)cc(F)c4)ccc3oc2=O)cc1,7160,99
CCN(Cc1ccccc1)Cc1ccc(-c2cc3ccc(OCCNC(=O)/C=C/c4ccc(Cl)c(Cl)c4)cc3oc2=O)cc1,4230,151
CCN(Cc1ccccc1)Cc1ccc(-c2cc3cc(OCCNC(=O)Cc4cc(F)cc(F)c4)ccc3oc2=O)cc1,551,149
CCN(Cc1ccccc1)Cc1ccc(-c2cc3ccc(OCCNC(=O)CCc4ccc(F)c(F)c4)cc3oc2=O)cc1,327,114
